Reference: ChEMBL document CHEMBL1201862, “PubChem BioAssay data set” (2004)
Calls of active or inactive are those of the source.

What was measured:
[1] = molecular target: Peroxisome proliferator-activated receptor gamma/Nuclear receptor coactivator 1 (Homo sapiens, UniProt P37231); experiment: TR-FRET dose response biochemical High Throughput Screening assay for agonists of the steroid receptor coactivator 1 (SRC-1) recruitment by the peroxisome proliferator-activated receptor gamma (PPAR gamma): non-selective agonists. [Related pubchem assays (depositor defined):AID1300, AID1808, AID504735, AID631]; assay type: protein assay
Chain of Peroxisome proliferator-activated receptor gamma/Nuclear receptor coactivator 1 (P37231 whole entry): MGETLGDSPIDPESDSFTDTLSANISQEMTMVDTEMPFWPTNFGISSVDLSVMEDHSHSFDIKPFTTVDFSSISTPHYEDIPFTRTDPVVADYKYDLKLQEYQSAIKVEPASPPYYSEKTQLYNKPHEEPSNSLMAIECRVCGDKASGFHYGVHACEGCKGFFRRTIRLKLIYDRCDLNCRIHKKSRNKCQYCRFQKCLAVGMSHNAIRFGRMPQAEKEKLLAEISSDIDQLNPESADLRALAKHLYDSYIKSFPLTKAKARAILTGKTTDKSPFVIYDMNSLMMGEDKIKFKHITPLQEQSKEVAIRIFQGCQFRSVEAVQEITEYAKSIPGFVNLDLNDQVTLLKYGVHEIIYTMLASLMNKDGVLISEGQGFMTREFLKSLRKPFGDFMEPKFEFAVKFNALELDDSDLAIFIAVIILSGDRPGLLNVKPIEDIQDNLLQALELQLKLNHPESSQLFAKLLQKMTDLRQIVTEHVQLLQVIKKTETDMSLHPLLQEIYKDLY
Chain of Peroxisome proliferator-activated receptor gamma/Nuclear receptor coactivator 1 (Q15788 whole entry, further chain): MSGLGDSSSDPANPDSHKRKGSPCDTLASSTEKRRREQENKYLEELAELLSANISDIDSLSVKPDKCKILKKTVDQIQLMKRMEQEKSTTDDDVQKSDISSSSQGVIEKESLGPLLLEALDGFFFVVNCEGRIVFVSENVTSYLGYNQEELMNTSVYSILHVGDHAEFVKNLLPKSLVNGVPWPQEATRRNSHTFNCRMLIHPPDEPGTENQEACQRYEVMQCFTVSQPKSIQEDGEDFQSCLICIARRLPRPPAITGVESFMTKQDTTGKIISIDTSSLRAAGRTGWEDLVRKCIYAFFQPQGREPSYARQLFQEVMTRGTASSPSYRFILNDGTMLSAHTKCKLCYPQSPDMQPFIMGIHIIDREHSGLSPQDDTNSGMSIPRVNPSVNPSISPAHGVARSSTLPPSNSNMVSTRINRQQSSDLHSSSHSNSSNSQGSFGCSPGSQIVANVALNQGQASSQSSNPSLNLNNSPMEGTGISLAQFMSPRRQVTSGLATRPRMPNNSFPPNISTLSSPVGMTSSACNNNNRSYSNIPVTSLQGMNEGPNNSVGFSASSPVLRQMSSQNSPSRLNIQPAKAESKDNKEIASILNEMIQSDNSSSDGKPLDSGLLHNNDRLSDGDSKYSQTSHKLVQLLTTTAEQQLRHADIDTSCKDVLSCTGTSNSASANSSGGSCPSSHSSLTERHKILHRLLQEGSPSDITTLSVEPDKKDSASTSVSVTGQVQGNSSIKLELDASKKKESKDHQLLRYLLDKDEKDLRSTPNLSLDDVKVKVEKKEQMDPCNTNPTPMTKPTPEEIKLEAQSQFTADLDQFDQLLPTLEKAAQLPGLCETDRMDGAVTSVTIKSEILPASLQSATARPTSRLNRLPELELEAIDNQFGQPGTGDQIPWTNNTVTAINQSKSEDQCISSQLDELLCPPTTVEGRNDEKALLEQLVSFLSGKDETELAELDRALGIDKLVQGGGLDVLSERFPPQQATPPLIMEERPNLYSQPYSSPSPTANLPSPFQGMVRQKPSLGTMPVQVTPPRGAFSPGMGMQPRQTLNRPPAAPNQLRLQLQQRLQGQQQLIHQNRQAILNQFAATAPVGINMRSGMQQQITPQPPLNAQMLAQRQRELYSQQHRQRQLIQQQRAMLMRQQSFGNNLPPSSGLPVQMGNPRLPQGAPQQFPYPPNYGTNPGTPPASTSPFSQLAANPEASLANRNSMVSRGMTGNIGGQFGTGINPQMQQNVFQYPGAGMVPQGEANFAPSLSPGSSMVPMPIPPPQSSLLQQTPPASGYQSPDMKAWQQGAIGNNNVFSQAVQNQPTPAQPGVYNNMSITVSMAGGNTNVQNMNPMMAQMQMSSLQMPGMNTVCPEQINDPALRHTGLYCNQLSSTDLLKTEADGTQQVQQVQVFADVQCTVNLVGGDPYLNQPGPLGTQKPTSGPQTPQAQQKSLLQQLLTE

[2] = molecular target: Mitogen-activated protein kinase 10 (Homo sapiens, UniProt P53779); experiment: Dose response biochemical screening assay for inhibitors of c-Jun N-Terminal Kinase 3 (JNK3). [Related pubchem assays: 746 ]
Chain of Mitogen-activated protein kinase 10 (P53779 whole entry): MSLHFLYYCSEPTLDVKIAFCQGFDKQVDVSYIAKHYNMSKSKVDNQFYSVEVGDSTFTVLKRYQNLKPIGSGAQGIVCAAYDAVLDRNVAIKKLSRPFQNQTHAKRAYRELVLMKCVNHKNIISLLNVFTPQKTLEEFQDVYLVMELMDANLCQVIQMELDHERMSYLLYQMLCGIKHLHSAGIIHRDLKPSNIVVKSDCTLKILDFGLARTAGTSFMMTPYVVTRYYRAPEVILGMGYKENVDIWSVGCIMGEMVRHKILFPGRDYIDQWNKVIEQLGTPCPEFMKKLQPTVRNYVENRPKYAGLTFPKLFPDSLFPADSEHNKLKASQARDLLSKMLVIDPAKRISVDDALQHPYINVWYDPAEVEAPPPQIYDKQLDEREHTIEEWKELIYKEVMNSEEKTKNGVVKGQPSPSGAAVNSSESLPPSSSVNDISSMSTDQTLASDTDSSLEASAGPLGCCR

[3] = molecular target: Peroxisome proliferator-activated receptor gamma/Nuclear receptor coactivator 2 (Homo sapiens, UniProt P37231); experiment: (§1) TR-FRET dose response biochemical High Throughput Screening assay for agonists of the steroid receptor coactivator 2 (SRC-2) recruitment by the peroxisome proliferator-activated receptor gamma (PPAR gamma): non-selective agonists. [Related pubchem assays: 1297, 1032 ]; assay type: functional
[4] = molecular target: Peroxisome proliferator-activated receptor gamma/Nuclear receptor coactivator 3 (Homo sapiens, UniProt P37231); experiment: as §1, with “3 (SRC-3)” for “2 (SRC-2)”, “1301 (Confirmation screen.), 1048 (Primary screen.)]” for “1297, 1032 ]”; assay type: functional
Phosphomannomutase 2 = Phosphomannomutase 2 (Homo sapiens, UniProt O15305); experiment: Counter screen SAR assay for PMM2 inhibitors via a fluorescence intensity assay. [Related pubchem assays (depositor defined):AID1545, AID1574]
Chain of Phosphomannomutase 2 (O15305 whole entry): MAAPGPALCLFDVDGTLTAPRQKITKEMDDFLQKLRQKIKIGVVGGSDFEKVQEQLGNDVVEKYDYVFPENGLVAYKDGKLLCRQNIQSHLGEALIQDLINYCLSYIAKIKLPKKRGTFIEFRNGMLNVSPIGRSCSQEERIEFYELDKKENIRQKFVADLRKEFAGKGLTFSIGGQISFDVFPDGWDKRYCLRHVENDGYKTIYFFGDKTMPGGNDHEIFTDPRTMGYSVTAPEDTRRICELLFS

[5] = molecular target: T1, Mannose-6-phosphate isomerase (Homo sapiens, UniProt P34949); experiment: phosphomannose isomerase inhibition – biochemical, fluorescence intensity, confirmation (AID 1535)
T1 sequence (P34949 whole entry): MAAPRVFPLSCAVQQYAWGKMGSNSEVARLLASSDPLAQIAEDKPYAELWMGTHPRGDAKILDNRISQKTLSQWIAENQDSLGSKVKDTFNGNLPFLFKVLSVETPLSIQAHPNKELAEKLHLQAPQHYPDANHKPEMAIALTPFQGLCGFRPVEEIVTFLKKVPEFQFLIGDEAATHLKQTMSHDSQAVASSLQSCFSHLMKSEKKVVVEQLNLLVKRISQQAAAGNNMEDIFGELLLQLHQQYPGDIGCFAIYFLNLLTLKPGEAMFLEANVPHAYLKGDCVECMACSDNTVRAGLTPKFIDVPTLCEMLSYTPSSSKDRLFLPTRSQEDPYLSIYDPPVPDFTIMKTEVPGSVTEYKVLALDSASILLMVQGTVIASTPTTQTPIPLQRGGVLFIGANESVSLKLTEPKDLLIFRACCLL

[6] = viability inhibitors of stage V gametocytes – luminescence, dose response (AID 1117278); assay type: functional, cell-based;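 note: gametocytes exposed to compound for 24 hours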
[7] = viability loss in human Jurkat cells – cell-based, luminescence, cytotoxicity control for P. falciparum gametocyte viability project, dose response (AID 1117277); assay type: functional;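 note: potency reflects loss of cellular ATP meaning fewer viable cells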
[8] = IC50 of Artemis nuclease activity blockers – biochemical, fluorescence intensity, dose response (AID 720701); assay type: functional;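 note: Artemis endonuclease enzyme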
[9] = molecular target: T2, Low molecular weight phosphotyrosine protein phosphatase (Homo sapiens, UniProt P24666); assay type: functional; conditions: read-out: IC50_Mean;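 note: Dose-response confirmation assay measuring inhibition of LMPTP enzyme activity by fluorescence intensity read-out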
T2 sequence (P24666 whole entry): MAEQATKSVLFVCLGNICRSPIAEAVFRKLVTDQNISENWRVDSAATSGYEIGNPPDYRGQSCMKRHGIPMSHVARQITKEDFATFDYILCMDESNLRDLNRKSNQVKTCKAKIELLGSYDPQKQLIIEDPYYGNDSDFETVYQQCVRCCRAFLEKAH

[10] = Luminescence Cell-Based Dose Confirmation HTS to Identify Inhibitors of Polyadenylation.; assay type: functional
[11] = molecular target: T3, DNA repair and recombination protein RAD54-like (Homo sapiens, UniProt Q92698); experiment: RAD54 Holliday junction migration blockers – biochemical, fluorescence, cherry-picked samples, dose series, confirmation (AID 651657); assay type: functional
T3 sequence (Q92698 whole entry): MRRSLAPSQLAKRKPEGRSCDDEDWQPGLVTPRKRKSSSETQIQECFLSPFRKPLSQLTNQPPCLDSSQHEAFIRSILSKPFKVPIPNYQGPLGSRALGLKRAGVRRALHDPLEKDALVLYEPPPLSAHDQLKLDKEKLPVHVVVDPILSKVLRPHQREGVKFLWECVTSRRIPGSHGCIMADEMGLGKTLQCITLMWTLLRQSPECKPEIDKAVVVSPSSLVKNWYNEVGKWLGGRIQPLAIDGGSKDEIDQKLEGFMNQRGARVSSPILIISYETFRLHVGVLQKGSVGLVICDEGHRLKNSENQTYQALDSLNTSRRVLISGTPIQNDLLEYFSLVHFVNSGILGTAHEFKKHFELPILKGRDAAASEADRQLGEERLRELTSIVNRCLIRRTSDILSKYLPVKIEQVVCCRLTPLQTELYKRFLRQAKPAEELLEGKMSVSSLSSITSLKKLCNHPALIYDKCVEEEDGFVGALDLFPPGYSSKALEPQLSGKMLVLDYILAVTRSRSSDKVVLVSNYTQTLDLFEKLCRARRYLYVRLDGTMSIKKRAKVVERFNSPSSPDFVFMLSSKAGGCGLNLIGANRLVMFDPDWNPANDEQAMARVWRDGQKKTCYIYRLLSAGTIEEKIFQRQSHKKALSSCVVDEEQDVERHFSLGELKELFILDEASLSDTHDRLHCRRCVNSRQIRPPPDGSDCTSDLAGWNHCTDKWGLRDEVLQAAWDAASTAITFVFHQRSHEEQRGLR

[12] = molecular target: DNA (cytosine-5)-methyltransferase 1 (Homo sapiens, UniProt P26358); experiment: inhibition of DNA methylation by DNMT1 – biochemical, fluorescent molecular beacon, confirmation (AID 602386); assay type: functional
Chain of DNA (cytosine-5)-methyltransferase 1 (P26358 whole entry): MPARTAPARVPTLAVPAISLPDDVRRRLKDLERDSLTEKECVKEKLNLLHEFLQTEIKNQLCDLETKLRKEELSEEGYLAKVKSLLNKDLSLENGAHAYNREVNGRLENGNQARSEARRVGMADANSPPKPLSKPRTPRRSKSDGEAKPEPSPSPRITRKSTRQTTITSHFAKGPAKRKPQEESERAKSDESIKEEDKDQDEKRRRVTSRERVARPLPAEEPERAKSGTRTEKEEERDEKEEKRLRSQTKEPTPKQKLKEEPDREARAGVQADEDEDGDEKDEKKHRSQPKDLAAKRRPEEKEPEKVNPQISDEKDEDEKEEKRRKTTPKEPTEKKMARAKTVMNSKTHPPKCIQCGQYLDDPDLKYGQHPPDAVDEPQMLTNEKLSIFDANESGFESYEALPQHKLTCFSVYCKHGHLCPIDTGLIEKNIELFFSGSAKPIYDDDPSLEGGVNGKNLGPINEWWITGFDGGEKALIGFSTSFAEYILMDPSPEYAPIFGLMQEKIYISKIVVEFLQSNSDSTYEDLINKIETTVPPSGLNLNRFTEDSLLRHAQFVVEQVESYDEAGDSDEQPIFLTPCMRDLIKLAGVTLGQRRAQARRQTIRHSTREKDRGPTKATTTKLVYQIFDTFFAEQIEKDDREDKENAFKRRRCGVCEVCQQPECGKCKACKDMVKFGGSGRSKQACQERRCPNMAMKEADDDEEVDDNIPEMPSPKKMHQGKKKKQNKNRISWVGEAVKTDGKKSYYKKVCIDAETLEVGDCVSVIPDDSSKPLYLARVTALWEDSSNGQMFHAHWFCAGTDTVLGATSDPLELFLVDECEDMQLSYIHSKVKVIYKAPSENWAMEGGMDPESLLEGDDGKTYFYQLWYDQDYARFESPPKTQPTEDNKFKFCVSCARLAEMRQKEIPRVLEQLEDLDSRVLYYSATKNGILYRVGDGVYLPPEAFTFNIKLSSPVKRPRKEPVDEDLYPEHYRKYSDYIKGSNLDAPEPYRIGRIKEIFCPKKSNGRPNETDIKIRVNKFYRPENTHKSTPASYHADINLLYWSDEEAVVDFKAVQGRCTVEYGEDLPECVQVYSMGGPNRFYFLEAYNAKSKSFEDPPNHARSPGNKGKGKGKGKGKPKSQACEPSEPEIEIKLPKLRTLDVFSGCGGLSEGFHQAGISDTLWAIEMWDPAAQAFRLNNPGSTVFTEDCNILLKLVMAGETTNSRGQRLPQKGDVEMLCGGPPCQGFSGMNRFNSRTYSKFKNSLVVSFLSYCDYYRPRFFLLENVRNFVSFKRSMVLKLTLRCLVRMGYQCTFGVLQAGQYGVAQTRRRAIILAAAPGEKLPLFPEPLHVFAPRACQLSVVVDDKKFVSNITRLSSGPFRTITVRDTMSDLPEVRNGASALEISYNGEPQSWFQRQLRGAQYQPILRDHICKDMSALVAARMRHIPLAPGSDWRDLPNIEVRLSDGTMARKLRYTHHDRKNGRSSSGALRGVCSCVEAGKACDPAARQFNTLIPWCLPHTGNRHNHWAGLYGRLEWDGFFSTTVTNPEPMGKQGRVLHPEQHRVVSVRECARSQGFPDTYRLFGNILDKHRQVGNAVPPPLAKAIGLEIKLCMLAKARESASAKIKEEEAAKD

[13] = molecular target: T4, DNA repair protein RAD52 homolog (Homo sapiens, UniProt P43351); assay type: functional, biochemical
T4 sequence (P43351 whole entry): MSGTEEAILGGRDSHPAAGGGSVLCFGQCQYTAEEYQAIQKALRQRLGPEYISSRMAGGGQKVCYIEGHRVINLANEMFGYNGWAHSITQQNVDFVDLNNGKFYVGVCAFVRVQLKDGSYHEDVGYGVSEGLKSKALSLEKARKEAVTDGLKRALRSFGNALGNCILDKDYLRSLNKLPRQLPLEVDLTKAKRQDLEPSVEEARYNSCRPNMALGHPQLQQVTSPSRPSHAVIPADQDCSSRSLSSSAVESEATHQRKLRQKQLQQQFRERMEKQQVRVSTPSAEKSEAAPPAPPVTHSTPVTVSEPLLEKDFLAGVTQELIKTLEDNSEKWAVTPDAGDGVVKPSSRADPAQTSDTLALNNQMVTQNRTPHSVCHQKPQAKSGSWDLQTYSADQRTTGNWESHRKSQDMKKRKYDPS

[14] = acridine orange displacement from DNA – biochemical, fluorescence polarization, cherry-pick, artefact control for RAD54 inhibitor project, dose response (AID 651673); assay type: functional
[15] = molecular target: Heat shock protein HSP 90-alpha (Homo sapiens, UniProt P07900); experiment: Luminescence-based dose response biochemical high throughput screening assay for inhibitors of the Heat Shock Protein 90 (HSP90). [Related pubchem assays: 1831 (Summary AID.), 1846 (Confirmation screen.), 1789 (Primary screen.)]
[16] = Luminescent dose response cell-based high throughput screening assay for inhibitors of the Janus kinase 2 mutant JAK2V617F. [Related pubchem assays: 1446 (Primary screen.), 1521 (Confirmation assay.), 1486 (Counter screen.)]; assay type: functional
BJ [17] = experiment: growth inhibition of engineered Ras-driven BJ cells – cell-based, alamar blue fluorescence, cherrypicked samples, dose response (AID 2631); assay type: functional; conditions: Homo sapiens;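 note: confirmatory dose-response assay in RAS-dependent BJ fibroblasts engineered with TERT, LT and ST, with cytotoxicity read by fluorescence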
BJ [18] = experiment: cells; assay type: functional, cell-based; conditions: Homo sapiens
BJ [19] = experiment: BJ-TERT fibroblast viability loss – cell-based, RAS-independent, luminescence, dose response (AID 1933); assay type: functional; conditions: Homo sapiens
[20] = DRD fibroblast viability loss – cell-based, non-viral oncogenic, luminescence, dose response (AID 1934); assay type: functional; conditions: Homo sapiens
BJ [21] = experiment: BJ-TERT-LT-ST fibroblast viability loss – cell-based, RAS-independent, luminescence, dose response (AID 1935); assay type: functional; conditions: Homo sapiens;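 note: BJ fibroblasts immortalized with TERT plus LT and ST oncogenes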
[22] = molecular target: Peroxisome proliferator-activated receptor gamma/Nuclear receptor corepressor 2 (Homo sapiens, UniProt P37231+Q9Y618); experiment: Counterscreen for NR2E3 inverse agonists: TR-FRET-based biochemical high throughput dose response assay to identify inverse agonists of the interaction between peroxisome proliferator-activated receptor gamma (PPARg) and nuclear receptor co-repressor 2 (NCOR2).; assay type: functional
[23] = molecular target: Photoreceptor-specific nuclear receptor (Homo sapiens, UniProt Q9Y5X4); experiment: ligands suppressing NR2E3 nuclear receptor activity – biochemical, TR-FRET, dose response (AID 463256); assay type: functional
Chain of Photoreceptor-specific nuclear receptor (Q9Y5X4 whole entry): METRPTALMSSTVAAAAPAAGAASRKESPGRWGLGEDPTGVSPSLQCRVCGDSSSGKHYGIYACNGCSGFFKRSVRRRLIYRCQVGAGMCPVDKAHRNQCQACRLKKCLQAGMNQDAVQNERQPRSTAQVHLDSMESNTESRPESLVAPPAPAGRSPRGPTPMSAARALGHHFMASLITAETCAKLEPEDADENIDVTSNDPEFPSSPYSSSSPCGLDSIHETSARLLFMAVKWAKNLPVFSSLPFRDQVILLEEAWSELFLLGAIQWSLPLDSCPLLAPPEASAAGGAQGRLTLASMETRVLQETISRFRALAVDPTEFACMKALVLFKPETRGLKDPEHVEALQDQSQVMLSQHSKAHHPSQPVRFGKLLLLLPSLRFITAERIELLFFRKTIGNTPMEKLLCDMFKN

With `Sc1nnc(-c2cccc(Br)c2)o1` as the molecule, how does the EC50 [1] read?
Its EC50 is 7.33 µM (active).

And the IC50 [2]?
The IC50 was > 93.1 µM (not active).

What about the EC50 [3] of the same molecule?
Its EC50 is 3.25 µM (active).

What about the EC50 [4] of the same molecule?
The EC50 was > 79.4 µM (not active).

And the IC50 (Phosphomannomutase 2)?
The IC50 was > 100 µM (inactive).

What about the IC50 [5] of the same molecule?
The IC50 was > 50 µM (inactive).

For `O=C(O)c1ccc(-c2ccccc2)nc1O`, which IC50 [6] is on record?
The IC50 was > 109 µM (inactive).

What about the IC50 [7] of the same molecule?
Its IC50 is > 83.2 µM (inactive).

For `O=C(Cc1cn2ccsc2n1)Nc1nc2c(s1)CN(Cc1ccccc1)CC2`, which IC50 [8] is on record?
Its IC50 is > 20 µM (inactive).

And the IC50 [9]?
Its IC50 is 44.6 µM (inactive).

What does the source list for `CN(C)CCc1cc2c(c3c1ccc1ccccc13)OCO2`?
EC50 [10]: > 120 µM (not active); AC50 [11]: 4.76 µM (active); IC50 [12]: > 99 µM (inactive); AC50 [13]: 1.29 µM (active); AC50 [14]: 39.9 µM (active)

With `COC(=O)c1ccc(NC(=O)c2ccc(C)cc2)o1` as the molecule, how does the IC50 [15] read?
The IC50 was > 60 µM (not active).

Which results are given for `CCOc1ccc(Nc2nc(N)nc(CCl)n2)cc1`?
IC50 [16]: 0.597 µM (active); EC50 (BJ [17]): 5.73 µM (active); EC50 (BJ [18]): 1.8 µM (active); EC50 (BJ [19]): 0.839 µM (inconclusive); EC50 [20]: 0.694 µM (active); EC50 (BJ [21]): 10.8 µM (inconclusive)

Which IC50 [22] does the source give for `Cc1cc(C)c2c(C)c(C(=O)NCc3ccc(S(N)(=O)=O)cc3)oc2c1` here?
The IC50 was 3.99 µM (active).

And the IC50 [23]?
The IC50 was 4.06 µM (active).
